In patent US4481192A, “Acid-protease inhibiting peptide derivatives” (SANOFI, priority 1982, dated 1984):
Read-outs that look alike come from different tables or passages of the source. Non-standard residues stand in square brackets, D forms with d. Residues, ends and D or L forms follow the SMILES beside them. *: point of attachment. X1 = COC(=O)C[C@@H](O)[C@H](CC(C)C)N*; Benzenesulfonyl = O=S(=O)(c1ccccc1)*; Sta = CC(C)C[C@H](N)[C@@H](O)CC(=O)O; Butanoyl(3,3-Me2) = CC(C)(C)CC(=O)*; Hydrocinnamoyl = O=C(CCc1ccccc1)*; X2 = O=C(NCCS(=O)(=O)*)OCc1ccccc1; Isovaleryl = CC(C)CC(=O)*; Nle = CCCC[C@H](N)C(=O)O; Nva = CCC[C@H](N)C(=O)O; Cbz = O=C(OCc1ccccc1)*; Boc = CC(C)(C)OC(=O)*

Tests used:
porcine pepsin = porcine pepsin (Sus scrofa, UniProt P00791); assay: Inhibition of porcine pepsin; assay type: biochemical; settings: pH 2, substrate bovine haemoglobin, 37° C.
Chain of porcine pepsin (P00791 60-385): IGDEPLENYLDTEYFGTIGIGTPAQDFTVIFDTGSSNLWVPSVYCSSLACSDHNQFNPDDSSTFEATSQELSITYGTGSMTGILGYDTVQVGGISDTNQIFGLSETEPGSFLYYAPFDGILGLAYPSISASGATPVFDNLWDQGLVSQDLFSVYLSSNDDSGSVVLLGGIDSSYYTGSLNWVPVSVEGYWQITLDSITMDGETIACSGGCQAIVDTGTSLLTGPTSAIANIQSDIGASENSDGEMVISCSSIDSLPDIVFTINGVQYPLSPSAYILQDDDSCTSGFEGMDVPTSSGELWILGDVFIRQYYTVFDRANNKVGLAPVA
Experimental: The method used is that of TAKAAKI AOYAGI (J. Antibiotics, 24, pages 687-694, 1971). The substrate used is bovine haemoglobin and the enzyme is porcine pepsin.
0.5% strength haemoglobin is hydrolysed with pepsin (1 mcg/ml) at 37° C. in 0.02M KCl-HCl buffer at pH 2.
Preincubation takes place for 3 minutes, followed by incubation for 25 minutes. After precipitation of the proteins with 1.7M perchloric acid, the optical density of the supernatant is determined on a spectrophotometer at 280 nm.
The results are expressed as the percentage inhibition of the maximum optical density obtained in the absence of inhibitor. They are also expressed as an IC50.
(§1) A 10^-3 M stock solution of the peptide is made up in a mixture containing equal volumes of a solution A (19 ml of methanol+1 ml of acetic acid) and a solution B (4 ml of methanol+2 ml of sodium hydroxide solution).
(§2) The subsequent dilutions of the peptide are then prepared in the appropriate buffer in accordance with the procedures described above.

[1] = biological target: T1, human plasma renin activity (Homo sapiens, UniProt P00797); assay: Inhibition of the human plasma renin activity (P.R.A.); assay type: biochemical; settings: 37° C., pool of human plasma
T1 construct: the human plasma contain and the substrate: angiotensinogen, and the enzyme: renin; from tissue; host or cells: pool of human plasma
T1 sequence (P00797 67-406): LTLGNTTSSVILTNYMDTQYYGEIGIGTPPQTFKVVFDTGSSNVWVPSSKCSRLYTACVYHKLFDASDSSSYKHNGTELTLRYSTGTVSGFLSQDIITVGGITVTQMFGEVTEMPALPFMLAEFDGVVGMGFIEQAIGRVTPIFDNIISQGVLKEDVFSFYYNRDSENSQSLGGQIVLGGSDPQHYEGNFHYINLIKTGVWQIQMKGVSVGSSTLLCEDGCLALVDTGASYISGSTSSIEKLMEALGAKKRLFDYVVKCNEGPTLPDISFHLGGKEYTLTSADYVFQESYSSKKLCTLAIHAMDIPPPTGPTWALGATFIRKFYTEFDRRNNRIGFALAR
Experimental: The angiotensin I released during the reaction (the human plasma contain and the substrate: angiotensinogen, and the enzyme: renin) is measured by radioimmunological determination using a kit.
Of course, an inhibitor of the enzyme for conversion of the PMSF (phenylmethylsulphonyl fluoride) is added to the incubation medium.
Two types of experiments were carried out:
one at pH 6, which is the optimum pH for the enzyme reaction with human renin (maleate buffer, incubation: 30 minutes), and
the other at pH 7.4, which is the physiological pH (phosphate buffer, incubation: 60 minutes).
as §1, §2

[2] = pH 6, maleate buffer, incubation 30 minutes, read-out: INHIBITION OF HUMAN P.R.A. (IC50) pH 6
[3] = pH 7.4, phosphate buffer, incubation 60 minutes, read-out: INHIBITION OF HUMAN P.R.A. (IC50) pH 7.4

Row | SMILES | IC50 (porcine pepsin) | IC50 [1, 2] | IC50 [1, 3]
1 | COC(=O)C[C@H](O)[C@H](CC(C)C)NC(=O)[C@H](C)NC(=O)C[C@H](O)[C@H](CC(C)C)NC(=O)[C@@H](NC(=O)[C@@H](Cc1ccccc1)NC(=O)OC(C)(C)C)C(C)C [SR 41377, Boc--(D)Phe--Val--Sta--Ala--Sta--OCH3] (Boc-[dF]V[Sta]A[Sta]-OMe) | 47 nM | – | –
2 | COC(=O)C[C@H](O)[C@H](CC(C)C)NC(=O)[C@H](C)NC(=O)C[C@H](O)[C@H](CC(C)C)NC(=O)[C@H](Cc1c[nH]cn1)NC(=O)[C@H](Cc1ccccc1)NS(=O)(=O)CCNC(=O)OCc1ccccc1 [SR 41748, Z--Tau--Phe--His--Sta--Ala--Sta--OCH3] (X2-FH[Sta]A[Sta]-OMe) | 620 nM | 2.2 nM | 110 nM
3 | CCC[C@H](NC(=O)[C@H](Cc1ccccc1)NC(=O)OC(C)(C)C)C(=O)N[C@@H](CC(C)C)[C@@H](O)CC(=O)N[C@@H](C)C(=O)N[C@@H](CC(C)C)[C@@H](O)CC(=O)OC [SR 41996, Boc--Phe--Nva--Sta--Ala--Sta--OMe] (Boc-F[Nva][Sta]A[Sta]-OMe) | – | 0.0011 nM | 51 nM
4 | COC(=O)C[C@H](O)[C@H](CC(C)C)NC(=O)[C@H](C)NC(=O)C[C@H](O)[C@H](CC(C)C)NC(=O)[C@H](Cc1ccccc1)NC(=O)[C@@H](Cc1ccccc1)NC(=O)OC(C)(C)C [SR 41518, Boc--(D)Phe--Phe--Sta--Ala--Sta--OMe] (Boc-[dF]F[Sta]A[Sta]-OMe) | 480 nM | 950 nM | –
5 | CC[C@H](C)[C@H](NC(=O)[C@H](Cc1ccccc1)NC(=O)OCc1ccccc1)C(=O)N[C@@H](CC(C)C)[C@@H](O)CC(=O)N[C@@H](C)C(=O)N[C@@H](CC(C)C)[C@@H](O)CC(=O)OC [SR 41477, Z--Phe--ILe--Sta--Ala--Sta--OMe] (Cbz-FI[Sta]A[Sta]-OMe) | 38 nM | 35 nM | 1000 nM
6 | COC(=O)C[C@H](O)[C@H](CC(C)C)NC(=O)[C@H](C)NC(=O)C[C@H](O)[C@H](CC(C)C)NC(=O)CNC(=O)[C@H](Cc1ccccc1)NC(=O)CC(C)C [SR 42261, iVa--Phe--Gly--Sta--Ala--Sta--OMe] (Isovaleryl-FG[Sta]A[Sta]-OMe) | 750 nM | 170 nM | 4700 nM
7 | COC(=O)C[C@H](O)[C@H](CC(C)C)NC(=O)[C@H](C)NC(=O)C[C@H](O)[C@H](CC(C)C)NC(=O)[C@H](Cc1ccccc1)NC(=O)[C@H](Cc1ccccc1)NS(=O)(=O)c1ccccc1 [SR 41938, C6 H5 SO2 --Phe--Phe--Sta--Ala--Sta--OCH3] (Benzenesulfonyl-FF[Sta]A[Sta]-OMe) | 63 nM | 1.6 nM | 440 nM
8 | CC[C@H](C)[C@H](NC(=O)OC(C)(C)C)C(=O)N[C@@H](Cc1c[nH]cn1)C(=O)N[C@@H](CC(C)C)[C@@H](O)CC(=O)N[C@@H](C)C(=O)N[C@@H](CC(C)C)[C@@H](O)CC(=O)OC [SR 42019, Boc--Ile--His--Sta--Ala--Sta--OMe] (Boc-IH[Sta]A[Sta]-OMe) | 73 nM | 110 nM | –
9 | COC(=O)C[C@@H](O)[C@H](CC(C)C)NC(=O)[C@H](C)NC(=O)C[C@H](O)[C@H](CC(C)C)NC(=O)[C@H](Cc1ccccc1)NC(=O)[C@H](Cc1ccccc1)NC(=O)CC(C)C [SR 41766, iVa--Phe--Phe--Sta--Ala--isoSta--OMe] (Isovaleryl-FF[Sta]A-X1) | 58 nM | 14 nM | 420 nM
10 | COC(=O)C[C@H](O)[C@H](CC(C)C)NC(=O)[C@H](C)NC(=O)C[C@H](O)[C@H](CC(C)C)NC(=O)[C@H](Cc1c[nH]c2ccccc12)NC(=O)[C@H](Cc1ccccc1)NC(=O)OCc1ccccc1 [SR 41416, Z Phe--Trp--Sta--Ala--Sta--OMe] (Cbz-FW[Sta]A[Sta]-OMe) | 65 nM | 80 nM | 1400 nM
11 | COC(=O)C[C@H](O)[C@H](CC(C)C)NC(=O)[C@H](C)NC(=O)C[C@H](O)[C@H](CC(C)C)NC(=O)[C@H](Cc1ccccc1)NC(=O)[C@H](Cc1ccccc1)NC(=O)CCc1ccccc1 [SR 41768, C6 H5 CH2 CH2 CO--Phe--Phe--Sta--Ala--Sta--OMe] (Hydrocinnamoyl-FF[Sta]A[Sta]-OMe) | 42 nM | 50 nM | 1000 nM
12 | CC(C)C[C@H](NC(=O)[C@H](C)NC(=O)C[C@H](O)[C@H](CC(C)C)NC(=O)[C@H](Cc1ccccc1)NC(=O)[C@H](Cc1ccccc1)NC(=O)OCc1ccccc1)[C@@H](O)CC(=O)O [SR 41225, Z--Phe--Phe--Sta--Ala--Sta--OH] (Cbz-FF[Sta]A[Sta]-OH) | 90 nM | 70 nM | 1000 nM

More lines, in order of falling IC50 (porcine pepsin), values ahead:

Row | IC50 (porcine pepsin) | IC50 [1, 2] | IC50 [1, 3] | SMILES
13 | 30 nM | 17 nM | 3500 nM | COC(=O)C[C@H](O)[C@H](CC(C)C)NC(=O)[C@H](C)NC(=O)C[C@H](O)[C@H](CC(C)C)NC(=O)[C@H](Cc1ccccc1)NC(=O)[C@H](Cc1ccccc1)NC(=O)OCc1ccccc1 [SR 41320, Z--Phe--Phe--Sta--Ala--Sta--OMe] (Cbz-FF[Sta]A[Sta]-OMe)
14 | 27 nM | 26 nM | 480 nM | COC(=O)C[C@H](O)[C@H](CC(C)C)NC(=O)[C@H](C)NC(=O)C[C@H](O)[C@H](CC(C)C)NC(=O)[C@H](Cc1ccccc1)NC(=O)[C@H](Cc1ccccc1)NC(=O)CC(C)(C)C [SR 42256, t--BuAc--Phe--Phe--Sta--Ala--Sta--OMe] ({Butanoyl(3,3-Me2)}-FF[Sta]A[Sta]-OMe)
15 | 27 nM | 52 nM | 2600 nM | COC(=O)C[C@H](O)[C@H](CC(C)C)NC(=O)[C@H](C)NC(=O)C[C@H](O)[C@H](CC(C)C)NC(=O)[C@H](CCCCNC(=O)OCc1ccccc1)NC(=O)[C@H](Cc1ccccc1)NC(=O)CC(C)C [SR 42130, iVa--Phe--Lys(Z)--Sta--Ala--Sta--OMe] (Isovaleryl-FK(Cbz)[Sta]A[Sta]-OMe)
16 | 24 nM | 170 nM | 2200 nM | COC(=O)C[C@H](O)[C@H](CC(C)C)NC(=O)[C@H](C)NC(=O)C[C@H](O)[C@H](CC(C)C)NC(=O)[C@@H](NC(=O)[C@H](Cc1ccc(O)cc1)NC(=O)OCc1ccccc1)C(C)C [SR 41476, Z--Tyr--Val--Sta--Ala--Sta--OMe] (Cbz-YV[Sta]A[Sta]-OMe)
17 | 22 nM | 260 nM | 4000 nM | CC(C)C[C@H](NC(=O)[C@H](C)NC(=O)C[C@H](O)[C@H](CC(C)C)NC(=O)[C@@H](NC(=O)[C@@H](Cc1ccccc1)NC(=O)OC(C)(C)C)C(C)C)[C@@H](O)CC(=O)O [SR 41491, Boc--(D)Phe--Val--Sta--Ala--Sta--OH] (Boc-[dF]V[Sta]A[Sta]-OH)
18 | 19 nM | – | – | CCCC[C@H](NC(=O)[C@H](Cc1ccccc1)NC(=O)CC(C)C)C(=O)N[C@@H](CC(C)C)[C@@H](O)CC(=O)N[C@@H](C)C(=O)N[C@@H](CC(C)C)[C@@H](O)CC(=O)O [SR 42128, iVa--Phe--Nle--Sta--Ala--Sta--OH] (Isovaleryl-F[Nle][Sta]A[Sta]-OH)
19 | 18 nM | 9 nM | 470 nM | COC(=O)C[C@H](O)[C@H](CC(C)C)NC(=O)[C@H](C)NC(=O)C[C@H](O)[C@H](CC(C)C)NC(=O)[C@H](C)NC(=O)[C@H](Cc1ccccc1)NC(=O)CC(C)C [SR 42258, iVa--Phe--Ala--Sta--Ala--Sta--OMe] (Isovaleryl-FA[Sta]A[Sta]-OMe)
20 | 16 nM | 0.03 nM | 42 nM | CCC[C@H](NC(=O)[C@H](Cc1ccccc1)NC(=O)CC(C)C)C(=O)N[C@@H](CC(C)C)[C@@H](O)CC(=O)N[C@@H](C)C(=O)N[C@@H](CC(C)C)[C@@H](O)CC(=O)OC [SR 41995, iVa--Phe--Nva--Sta--Ala--Sta--OMe] (Isovaleryl-F[Nva][Sta]A[Sta]-OMe)
21 | 13 nM | 0.76 nM | 260 nM | CCC[C@H](NC(=O)[C@H](Cc1ccccc1)NC(C)=O)C(=O)N[C@@H](CC(C)C)[C@@H](O)CC(=O)N[C@@H](C)C(=O)N[C@@H](CC(C)C)[C@@H](O)CC(=O)OC [SR 41994, Ac--Phe--Nva--Sta--Ala--Sta--OMe] (Ac-F[Nva][Sta]A[Sta]-OMe)
22 | 8 nM | 0.33 nM | 75 nM | COC(=O)C[C@H](O)[C@H](CC(C)C)NC(=O)[C@H](C)NC(=O)C[C@H](O)[C@H](CC(C)C)NC(=O)[C@H](CC(C)C)NC(=O)[C@H](Cc1ccccc1)NC(=O)CC(C)C [SR 41765, iVa--Phe--Leu--Sta--Ala--Sta--OMe] (Isovaleryl-FL[Sta]A[Sta]-OMe)
